Results taken from paper PMC11088557 (Clinical Drug Investigation, 2024).
“And” between values parts separate entries of the source, which are not always exact repeats. Identical values can stand only once.

Legend:
[1] = viloxazine ER 900 mg qd, steady state
[2] = tested on: CYP1A2; conditions: cited from earlier work
[3] = tested on: CYP3A4; conditions: cited from earlier work
[4] = tested on: CYP2C19; conditions: in vitro study; cited from earlier work
[5] = tested on: CYP2C8; conditions: in vitro study; cited from earlier work
[6] = tested on: CYP2D6; conditions: cited from earlier work
[7] = cited from earlier work
[8] = tested on: CYP2B6; conditions: published in vitro study; cited from earlier work
[9] = cited from earlier work; remark: listed apart in the source
[10] = tested on: CYP2C9; conditions: in vitro study; cited from earlier work
[11] = viloxazine ER 900 mg/day from Day 3; Day 4; p values > 0.05
[12] = combination vs MCC alone

SMILES | AUC24 higher in CYP2D6 PMs than EMs [1] | Cmax higher in CYP2D6 PMs than EMs [1] [%] | Cmin higher in CYP2D6 PMs than EMs [1] [%] | ki ([2]; in vitro, [caffeine]) [µg/mL] | in vitro inhibition of CYP1A2 ([2]; published in vitro study) | ki ([3]; in vitro, [midazolam]) [µg/mL] | in vitro inhibition of CYP3A4/5 ([3]; published in vitro study) | in vitro inhibition of CYP2C19 [4] | in vitro inhibition of CYP2C8 [5] | ki ([6]; in vitro, [dextromethorphan]) [µg/mL] | in vitro inhibition of CYP2D6 ([6]; published in vitro study) | change in Cmax when coadministered with paroxetine [7] | increase in AUC when coadministered with paroxetine [7] [%] | in vitro inhibition of CYP2B6 [8] | 5-hydoxyviloxazine metabolites, share of the metabolized fraction of the drug [9] | dose excreted unchanged [9] | in vitro inhibition of CYP2C9 [10] | attainment of steady state [11] | prolongation of median Tmax with viloxazine ER vs MCC alone [12] [h]
CCOc1ccccc1OCC1CNCCO1 (stereo not shown) [viloxazine] | 26% and 25% | 21 | 33 | 0.124 | strong, reversible inhibitor | 26.8 | weak inhibitor | no meaningful inhibition | no meaningful inhibition | 12.7 | weak inhibitor | no changes | < 35 | weak inhibitor | about 50% | approximately 22% | no meaningful inhibition | second day of dosing | 
COc1ccc2c(c1)[C@]13CCCC[C@@H]1[C@H](C2)N(C)CC3 [Dextromethorphan, dextromethorphan] |  |  |  |  |  |  |  |  |  |  |  |  |  |  |  |  |  |  | 1
